According to patent US20260108447A1, “RESIDENT-SKIN-FLORA-IMPROVING AGENT AND EXTERNAL-USE COMPOSITION FOR SKIN” (NIHON SHOKUHIN KAKO CO., LTD., priority 2022, published 2026):

Assays:
Test in all cases: Change in bacteria count (bacterial turbidity OD660) when the sugar is added to the culture medium
Assay type in all cases: cell-based
[1] = tested on: Staphylococcus hominis (JCM31912); details: 24 hours; for effect for promoting proliferation: test example 5, FIG. 5, sentence names no bacterium, taken as S. hominis; for proliferation of S. hominis, relative value (percentage relative to non-sugar-added group): test example 4, OD660, FIG. 4
Procedure: (§1) An investigation was conducted in regard to a change in bacteria count when the α-gluco-oligosaccharide or the β-gluco-oligosaccharide prepared as described above was added to a culture medium and culturing was carried out in culturing of the various bacteria indicated in table 3 as resident skin bacteria under respectively suitable culture conditions.
(§2) Specifically, the various bacteria were cultured overnight using respectively suitable culture media to prepare preculture solutions, and the α-gluco-oligosaccharide or the β-gluco-oligosaccharide prepared as described above was added to 3 mL of fresh culture media so as to reach a final concentration of 0.5 (w/v) %, whereupon 0.03 ml of the preculture liquids was mixed thereinto and cultured for 24 hours, and the bacterial turbidity (OD660) after culturing was measured. Additionally, glucose was added as a sugar to a culture medium and similar tests were performed to arrive at a comparative control. The results were expressed as relative values (percentage relative to non-sugar-added group), where 100% indicated the bacterial turbidity when sterilized ultrapure water was added instead of any sugar.
(§3) The effect for promoting proliferation of S. hominis, S. aureus, C. acnes, C. xerosis, or M. luteus was evaluated in the same manner as in test example 1, except that sophorose prepared at high purity as described above was used as the β-gluco-oligosaccharide composed of disaccharides, and the amount of the sophorose added to the culture medium was set to 0.1 (w/v) %, 0.5 (w/v) %, or 1.0 (w/v) % in terms of final concentration.
(§4) The effect for promoting proliferation of S. hominis, S. aureus, C. acnes, C. xerosis, or M. luteus was evaluated in the same manner as in test example 1, except that laminaribiose and gentiobiose prepared at high purity as described above, as well as commercially available cellobiose (Nacalai Tesque, Inc.), were used as the β-gluco-oligosaccharide composed of disaccharides, and the amount of the β-gluco-oligosaccharide added to the culture medium was set to 0.5 (w/v) % in terms of final concentration.

[2] = tested on: Micrococcus luteus (JCM1464); details: 24 hours; for proliferation of M. luteus, relative value (percentage relative to non-sugar-added group): test example 5, final concentration 0.5 (w/v) %, OD660, FIG. 5
Procedure: as §1, §2, §3, §4

[3] = tested on: Staphylococcus epidermidis (JCM20345); details: 24 hours
Procedure: as §1, §2
Specifically, the effect for promoting proliferation of S. epidermidis was evaluated in the same manner as in test example 1, except that sophorose, laminaribiose, or gentiobiose prepared at high purity as described above was used as the sugar to be added to the culture medium, and the amount of the sugar added to the culture medium was set to 0.3 (w/v) % or 0.5 (w/v) % in terms of the final concentration.
The effect for promoting proliferation of S. epidermidis was evaluated in the same manner as in test example 2, except that sophorose prepared at high purity as described above was used as the β-gluco-oligosaccharide composed of disaccharides, and the amount of the sophorose added to the culture medium was set to 0.1 (w/v) % or 1.0 (w/v) % in terms of the final concentration.

[4] = tested on: Staphylococcus aureus (ATCC6538); details: 24 hours
Procedure: as §1, §2, §3, §4

[5] = tested on: Corynebacterium xerosis (JCM1971); details: test example 4; at any of 0.1, 0.5, 1.0 (w/v) %, 24 hours; FIG. 4
Procedure: as §1, §2, §3, §4

[6] = tested on: Cutibacterium acnes (JCM6425); details: test example 4; at any of 0.1, 0.5, 1.0 (w/v) %, 24 hours; FIG. 4
Procedure: as §1, §2, §3, §4

[7] = final concentration 0.5 (w/v) %
[8] = test example 2, high-purity sugar 0.3 (w/v) % or 0.5 (w/v) % final concentration, FIG. 2
[9] = test example 4, at any of 0.1, 0.5, 1.0 (w/v) %, FIG. 4

Row | Compound | effect for promoting proliferation [1, 7] | proliferation of M. luteus, relative value (percentage relative to non-sugar-added group) [2] [%] | effect for promoting proliferation of S. epidermidis [3, 8] | proliferation of S. aureus, relative value (percentage relative to non-sugar-added group) ([4]; test example 5, final concentration 0.5 (w/v) %, OD660, FIG. 5) [%] | effect for promoting proliferation of S. epidermidis ([3]; test example 3, final concentration 0.1 (w/v) %, FIG. 3) | effect for promoting proliferation of S. epidermidis, compared with 0.5 (w/v) % of test example 2 ([3]; test example 3, final concentration 1.0 (w/v) %, FIG. 3) | effect for promoting proliferation of S. aureus relative to the control [4, 9] | proliferation of S. hominis, relative value (percentage relative to non-sugar-added group) [1, 7] [%] | proliferation of S. hominis, relative value (percentage relative to non-sugar-added group) ([1]; final concentration 1.0 (w/v) %) [%] | effect for promoting proliferation of C. xerosis relative to the control [5] | effect for promoting proliferation of M. luteus relative to the control [2, 9] | effect for promoting proliferation of C. acnes relative to the control [6]
1 | O=C[C@H](O)[C@@H](O)[C@H](O[C@@H]1O[C@H](CO)[C@@H](O)[C@H](O)[C@H]1O)[C@H](O)CO [cellobiose] | not confirmed to yield an effect for promoting proliferation | 111.7 |  |  |  |  |  |  |  |  |  | 
2 | OC[C@H]1O[C@@H](O[C@H]2[C@H](O)[C@@H](CO)OC(O)[C@@H]2O)[C@H](O)[C@@H](O)[C@@H]1O (some centres unmarked) [laminaribiose, reference compound] | not confirmed to yield an effect for promoting proliferation |  | did not exhibit an effect for promoting proliferation | 108.5 |  |  |  |  |  |  |  | 
3 | O=C[C@H](O[C@@H]1O[C@H](CO)[C@@H](O)[C@H](O)[C@H]1O)[C@@H](O)[C@H](O)[C@H](O)CO [sophorose, 2-O-β-D-glucopyranosyl-D-glucose] |  |  | prominent effect for promoting proliferation |  | exhibit the effect for promoting proliferation | no great difference was observed | no effect for promoting proliferation | 118.0 | 118.8 | no effect for promoting proliferation | no effect for promoting proliferation | no effect for promoting proliferation
4 | gentiobiose | not confirmed to yield an effect for promoting proliferation | 121.9 | did not exhibit an effect for promoting proliferation |  |  |  |  |  |  |  |  | 
